Assay results as given in patent US9247759B2, “Identification of human T2R receptors that respond to bitter compounds that elicit the bitter taste in compositions, and the use thereof in assays to identify compounds that inhibit (block) bitter taste in compositions and use thereof” (SENOMYX, INC., priority 2007, dated 2016).
Where two headings read alike, the source gives them in different places.

Tests used:
[1] = target: T1, hT2R8 (Homo sapiens (Human), UniProt Q9NYW2); test: hT2R8 antagonist high-throughput FLIPR assay, stable cell line with G16g44, agonist andrographolide; format: cell-based; details: read-out: IC50 on hT2R8 bitter receptor
T1 sequence (Q9NYW2 whole entry): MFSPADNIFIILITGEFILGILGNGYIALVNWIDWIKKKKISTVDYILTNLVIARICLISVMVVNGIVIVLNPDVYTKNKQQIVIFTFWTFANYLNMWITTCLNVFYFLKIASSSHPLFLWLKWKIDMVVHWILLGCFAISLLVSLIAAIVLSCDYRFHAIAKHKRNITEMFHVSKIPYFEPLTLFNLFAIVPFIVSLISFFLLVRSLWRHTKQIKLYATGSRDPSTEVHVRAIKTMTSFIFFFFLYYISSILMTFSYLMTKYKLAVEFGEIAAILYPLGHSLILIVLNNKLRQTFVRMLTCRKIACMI
How it was run: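 Antagonist screen: compounds co-applied with agonist andrographolide at 200 μM, a dose giving 70–80% of maximal hT2R8 activation. Fluorescence measured by FLIPR in a stable HEK293 line expressing both hT2R8 and the promiscuous G16g44 protein.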

[2] = system: bitter taste of instant coffee; test: 2-alternative forced choice taste test, instant coffee with hT2R8 antagonists; format: in vivo, human; details: antagonist 5 μM
Description: Taste tests were performed with hT2R8 antagonists in instant coffee using a 2-alternative forced choice method with a taste panel of 15-20 panelists. Coffee samples with the antagonists were given to the taste panelists together with the same sample without antagonists, the panelists were asked to identify the bitterer sample within the pair.

[3] = target: hT2R64 (Homo sapiens (Human), UniProt P59538); test: hT2R panel inhibition, transient HEK293 G16g44, agonist Aristolochic Acid 1 μM; format: cell-based; details: HEK293, compound at 25 μM; receptor activated to EC80 with the corresponding agonist; read-out: screening result against bitter receptor 64
Sequence of hT2R64 (P59538 whole entry): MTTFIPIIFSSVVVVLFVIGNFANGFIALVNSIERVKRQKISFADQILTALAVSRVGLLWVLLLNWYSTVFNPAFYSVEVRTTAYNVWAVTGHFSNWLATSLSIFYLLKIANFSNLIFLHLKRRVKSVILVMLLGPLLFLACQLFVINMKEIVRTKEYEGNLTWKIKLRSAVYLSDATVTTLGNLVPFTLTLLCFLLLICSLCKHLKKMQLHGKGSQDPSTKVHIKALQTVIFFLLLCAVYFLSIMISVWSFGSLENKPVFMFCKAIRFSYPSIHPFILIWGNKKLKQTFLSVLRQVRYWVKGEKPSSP
How it was run: (§1)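 Functional inhibition format: single hT2R transient expression in a G16g44-stable line, bitter agonist at EC80, test compound effect expressed as reduction in receptor activity.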

[4] = target: T2, hT2R14 (Homo sapiens (Human), UniProt Q9NYV8); test: hT2R panel inhibition, transient HEK293 G16g44, agonist Aristolochic Acid 2 μM; format: cell-based; details: HEK293, compound at 25 μM; receptor activated to EC80 with the corresponding agonist; read-out: screening result against bitter receptor 14
T2 sequence (Q9NYV8 whole entry): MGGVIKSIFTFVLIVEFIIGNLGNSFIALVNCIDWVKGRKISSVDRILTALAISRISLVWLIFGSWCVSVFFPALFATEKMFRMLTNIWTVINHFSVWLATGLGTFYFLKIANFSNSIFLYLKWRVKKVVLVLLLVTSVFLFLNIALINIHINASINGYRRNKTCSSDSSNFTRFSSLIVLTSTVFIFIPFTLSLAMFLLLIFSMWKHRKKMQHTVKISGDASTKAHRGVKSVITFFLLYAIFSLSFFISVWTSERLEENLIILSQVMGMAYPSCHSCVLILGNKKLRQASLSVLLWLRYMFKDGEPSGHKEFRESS
How it was run: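 Agonist challenge was at EC80, with 0.5 mM andrographolide on hT2R8 and 2 μM aristolochic acid on hT2R14. Inhibition was measured in functional assays in HEK293 cells that stably carry the promiscuous G protein G16g44 and were transiently transfected with the individual receptor.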

[5] = system: hT2R55; test: hT2R panel inhibition, transient HEK293 G16g44, agonist Cinchonine 150 μM; format: cell-based, human; details: compound at 25 μM; receptor activated to EC80 with the corresponding agonist
How it was run: as §1

[6] = target: T1, hT2R8; test: hT2R panel inhibition, transient HEK293 G16g44, agonist Andrographolide 0.5 mM; format: cell-based; details: HEK293, compound at 25 μM; receptor activated to EC80 with the corresponding agonist; read-out: screening result against bitter receptor 8
Description: Specifically, in order to evaluate the inhibitory selectivity of the Compound C compound, this compound was tested against 22 human T2Rs which were deorphaned by Senomyx. These receptors and the bitter ligands that activate these human T2Rs are reported in earlier patent applications which are incorporated by reference herein. These 22 human T2Rs are hT2R1, 3, 4, 5, 7, 8, 9, 10, 13, 14, 16, 44, 51, 54, 55, 61, 63, 64, 65, 67, 71 and 75. The amino acid and nucleic acid sequences of all of these T2Rs may be found in these earlier patent applications. These human T2Rs were each individually transiently transfected into HEK293 cells that stably express the promiscuous G protein G16g44 and functional assays were effected using these receptors as disclosed in these same patent applications. […] The ligands were used at EC80 concentration levels. The list of bitter ligands utilized and the tested ligand concentrations are contained in Table 5 of this example.

[7] = target: hT2R51 (Homo sapiens (Human), UniProt P59533); test: hT2R panel inhibition, transient HEK293 G16g44, agonist Prop 2.5 μM; format: cell-based; details: receptor activated to EC80 with the corresponding agonist; for inhibition at 25 µM: HEK293, compound at 25 μM, read-out: screening result against bitter receptor 51
Sequence of hT2R51 (P59533 whole entry): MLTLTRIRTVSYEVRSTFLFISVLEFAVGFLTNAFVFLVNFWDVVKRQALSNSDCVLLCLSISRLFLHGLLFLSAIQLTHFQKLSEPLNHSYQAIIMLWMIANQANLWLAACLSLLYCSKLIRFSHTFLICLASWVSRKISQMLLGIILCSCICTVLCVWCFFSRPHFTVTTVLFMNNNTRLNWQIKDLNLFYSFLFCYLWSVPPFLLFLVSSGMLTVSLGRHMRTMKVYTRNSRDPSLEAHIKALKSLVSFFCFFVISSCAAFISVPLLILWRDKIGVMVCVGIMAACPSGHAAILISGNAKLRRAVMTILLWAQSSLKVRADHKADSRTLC
How it was run: as §1

[8] = target: hT2R71 (Homo sapiens (Human), UniProt P59536); test: hT2R panel inhibition, transient HEK293 G16g44, agonist Picric Acid 10 μM; format: cell-based; details: receptor activated to EC80 with the corresponding agonist; for inhibition at 25 µM: HEK293, compound at 25 μM, read-out: screening result against bitter receptor 71
Sequence of hT2R71 (P59536 whole entry): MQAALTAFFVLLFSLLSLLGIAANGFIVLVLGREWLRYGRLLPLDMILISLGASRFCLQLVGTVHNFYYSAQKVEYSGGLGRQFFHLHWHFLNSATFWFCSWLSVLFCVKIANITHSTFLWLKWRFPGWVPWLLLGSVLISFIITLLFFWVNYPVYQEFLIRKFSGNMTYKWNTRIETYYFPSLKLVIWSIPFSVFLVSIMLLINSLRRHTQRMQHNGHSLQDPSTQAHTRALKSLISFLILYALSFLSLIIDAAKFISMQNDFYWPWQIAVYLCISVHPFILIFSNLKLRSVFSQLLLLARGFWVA
How it was run: as §1

[9] = target: hT2R75 (Homo sapiens (Human), UniProt P59540); test: hT2R panel inhibition, transient HEK293 G16g44, agonist Strychnine 1 μM; format: cell-based; details: HEK293, read-out: screening result against bitter receptor 75, compound at 25 μM; receptor activated to EC80 with the corresponding agonist
Sequence of hT2R75 (P59540 whole entry): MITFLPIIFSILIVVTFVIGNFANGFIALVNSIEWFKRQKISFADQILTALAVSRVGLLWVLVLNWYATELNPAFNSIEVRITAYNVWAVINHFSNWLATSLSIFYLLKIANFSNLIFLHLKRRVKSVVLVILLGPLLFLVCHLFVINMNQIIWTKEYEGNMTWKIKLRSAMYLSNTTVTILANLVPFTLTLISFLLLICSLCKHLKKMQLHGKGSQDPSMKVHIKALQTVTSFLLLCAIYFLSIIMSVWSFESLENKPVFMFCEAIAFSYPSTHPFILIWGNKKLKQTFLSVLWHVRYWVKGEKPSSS

[10] = target: hT2R10 (Homo sapiens (Human), UniProt Q9NYW0); test: hT2R panel inhibition, transient HEK293 G16g44, agonist Strychnine 50 μM; format: cell-based; details: receptor activated to EC80 with the corresponding agonist; for inhibition at 25 µM: HEK293, read-out: screening result against bitter receptor 10, compound at 25 μM
Sequence of hT2R10 (Q9NYW0 whole entry): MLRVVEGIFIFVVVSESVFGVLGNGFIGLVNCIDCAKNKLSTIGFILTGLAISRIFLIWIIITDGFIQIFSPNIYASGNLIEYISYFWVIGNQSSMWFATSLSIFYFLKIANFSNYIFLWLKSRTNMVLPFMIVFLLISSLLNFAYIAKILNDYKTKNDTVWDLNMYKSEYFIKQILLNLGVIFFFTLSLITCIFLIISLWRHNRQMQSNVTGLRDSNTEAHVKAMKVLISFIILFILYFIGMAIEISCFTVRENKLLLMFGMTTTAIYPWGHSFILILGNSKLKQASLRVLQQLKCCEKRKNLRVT

[11] = target: hT2R3 (Homo sapiens (Human), UniProt Q9NYW6); test: hT2R panel inhibition, transient HEK293 G16g44, agonist Chloroquine pH6.5 50 μM; format: cell-based; details: receptor activated to EC80 with the corresponding agonist; for inhibition at 25 µM: HEK293, compound at 25 μM, read-out: screening result against bitter receptor 3
Sequence of hT2R3 (Q9NYW6 whole entry): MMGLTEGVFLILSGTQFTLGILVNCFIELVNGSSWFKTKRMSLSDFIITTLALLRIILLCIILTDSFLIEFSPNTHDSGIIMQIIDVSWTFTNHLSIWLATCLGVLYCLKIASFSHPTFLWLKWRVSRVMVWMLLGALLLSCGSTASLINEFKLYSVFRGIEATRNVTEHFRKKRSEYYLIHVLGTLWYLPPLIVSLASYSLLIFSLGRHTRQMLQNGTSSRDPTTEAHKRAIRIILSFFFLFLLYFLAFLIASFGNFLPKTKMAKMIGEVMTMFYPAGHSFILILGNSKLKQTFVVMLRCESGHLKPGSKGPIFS
How it was run: as §1

[12] = target: hT2R5 (Homo sapiens (Human), UniProt Q9NYW4); test: hT2R panel inhibition, transient HEK293 G16g44, agonist Picoline 10 mM; format: cell-based; details: HEK293, compound at 25 μM; receptor activated to EC80 with the corresponding agonist; read-out: screening result against bitter receptor 5
Sequence of hT2R5 (Q9NYW4 whole entry): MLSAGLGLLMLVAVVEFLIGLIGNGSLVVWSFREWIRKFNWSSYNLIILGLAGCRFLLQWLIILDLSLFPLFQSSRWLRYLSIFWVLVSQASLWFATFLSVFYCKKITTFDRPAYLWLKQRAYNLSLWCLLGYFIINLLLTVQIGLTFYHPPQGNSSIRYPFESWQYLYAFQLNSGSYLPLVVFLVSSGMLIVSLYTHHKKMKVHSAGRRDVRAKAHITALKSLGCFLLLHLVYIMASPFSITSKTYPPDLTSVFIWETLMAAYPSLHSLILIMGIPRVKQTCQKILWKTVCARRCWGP
How it was run: as §1

[13] = target: T2, hT2R14; test: hT2R14 antagonist high-throughput FLIPR assay, stable cell line with G16g44, agonist aristolochic acid; format: cell-based
How it was run: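 Compounds were co-applied with 3 μM aristolochic acid, a dose set to reach 70-80% of maximal hT2R14 activation. Read-out was FLIPR fluorescence in a stable HEK293 line co-expressing hT2R14 and G16g44.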

[14] = system: hT2R63; test: hT2R panel inhibition, transient HEK293 G16g44, agonist Caffeine 1 mM or Andrographolide 100 μM; format: cell-based, human; details: compound at 25 μM; receptor activated to EC80 with the corresponding agonist
How it was run: as §1

[15] = target: hT2R61 (Homo sapiens (Human), UniProt P59537); test: hT2R panel inhibition, transient HEK293 G16g44, agonist Aristolochic Acid 25 nM; format: cell-based; details: HEK293, compound at 25 μM; receptor activated to EC80 with the corresponding agonist; read-out: screening result against bitter receptor 61
Sequence of hT2R61 (P59537 whole entry): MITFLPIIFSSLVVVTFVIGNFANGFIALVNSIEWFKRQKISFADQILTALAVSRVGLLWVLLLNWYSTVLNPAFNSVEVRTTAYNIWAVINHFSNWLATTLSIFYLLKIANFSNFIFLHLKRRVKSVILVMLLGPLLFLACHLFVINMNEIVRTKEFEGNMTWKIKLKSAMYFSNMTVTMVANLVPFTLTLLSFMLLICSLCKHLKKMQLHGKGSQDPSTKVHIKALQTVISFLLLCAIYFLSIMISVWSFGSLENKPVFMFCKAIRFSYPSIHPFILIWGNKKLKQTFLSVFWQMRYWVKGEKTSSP
How it was run: as §1

[16] = system: hT2R44; test: hT2R panel inhibition, transient HEK293 G16g44, agonist Denatonium 0.5 μM; format: cell-based, human; details: compound at 25 μM; receptor activated to EC80 with the corresponding agonist
How it was run: as §1

[17] = target: hT2R7 (Homo sapiens (Human), UniProt Q9NYW3); test: hT2R panel inhibition, transient HEK293 G16g44, agonist Chloroquine pH6.5 10 mM; format: cell-based; details: HEK293, compound at 25 μM; receptor activated to EC80 with the corresponding agonist; read-out: screening result against bitter receptor 7
Sequence of hT2R7 (Q9NYW3 whole entry): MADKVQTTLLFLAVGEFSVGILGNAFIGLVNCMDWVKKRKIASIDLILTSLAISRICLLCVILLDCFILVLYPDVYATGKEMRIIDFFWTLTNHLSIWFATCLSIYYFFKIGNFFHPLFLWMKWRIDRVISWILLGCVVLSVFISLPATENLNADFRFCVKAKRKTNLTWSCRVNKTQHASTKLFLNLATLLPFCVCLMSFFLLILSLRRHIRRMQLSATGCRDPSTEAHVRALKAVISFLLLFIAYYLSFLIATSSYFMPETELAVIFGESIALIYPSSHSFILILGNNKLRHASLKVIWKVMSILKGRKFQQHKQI
How it was run: as §1

[18] = system: hT2R67; test: hT2R panel inhibition, transient HEK293 G16g44, agonist Andrographolide 5 μM; format: cell-based, human; details: compound at 25 μM; receptor activated to EC80 with the corresponding agonist
How it was run: as §1

[19] = target: hT2R16 (Homo sapiens (Human), UniProt Q9NYV7); test: hT2R panel inhibition, transient HEK293 G16g44, agonist Salicin 1 mM; format: cell-based; details: HEK293, compound at 25 μM; receptor activated to EC80 with the corresponding agonist; read-out: screening result against bitter receptor 16
Sequence of hT2R16 (Q9NYV7 whole entry): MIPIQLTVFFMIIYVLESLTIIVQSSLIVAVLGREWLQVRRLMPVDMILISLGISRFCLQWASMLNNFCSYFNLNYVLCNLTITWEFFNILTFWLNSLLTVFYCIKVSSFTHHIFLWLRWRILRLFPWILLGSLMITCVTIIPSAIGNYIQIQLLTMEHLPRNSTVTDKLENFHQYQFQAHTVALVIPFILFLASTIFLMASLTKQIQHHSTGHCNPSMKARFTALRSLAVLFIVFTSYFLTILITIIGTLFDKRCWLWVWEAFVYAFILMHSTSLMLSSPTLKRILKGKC
How it was run: as §1

[20] = system: hT2R54; test: hT2R panel inhibition, transient HEK293 G16g44, agonist Ranitidine 5 mM; format: cell-based, human; details: compound at 25 μM; receptor activated to EC80 with the corresponding agonist
How it was run: as §1

[21] = system: hT2R65; test: hT2R panel inhibition, transient HEK293 G16g44, agonist Oleuropein 1 mM; format: cell-based, human; details: compound at 25 μM; receptor activated to EC80 with the corresponding agonist
How it was run: as §1

[22] = target: hT2R4 (Homo sapiens (Human), UniProt Q9NYW5); test: hT2R panel inhibition, transient HEK293 G16g44, agonist Chloroquine pH6.5 5 mM; format: cell-based; details: HEK293, compound at 25 μM; receptor activated to EC80 with the corresponding agonist; class symbols; read-out: screening result against bitter receptor 4
Sequence of hT2R4 (Q9NYW5 whole entry): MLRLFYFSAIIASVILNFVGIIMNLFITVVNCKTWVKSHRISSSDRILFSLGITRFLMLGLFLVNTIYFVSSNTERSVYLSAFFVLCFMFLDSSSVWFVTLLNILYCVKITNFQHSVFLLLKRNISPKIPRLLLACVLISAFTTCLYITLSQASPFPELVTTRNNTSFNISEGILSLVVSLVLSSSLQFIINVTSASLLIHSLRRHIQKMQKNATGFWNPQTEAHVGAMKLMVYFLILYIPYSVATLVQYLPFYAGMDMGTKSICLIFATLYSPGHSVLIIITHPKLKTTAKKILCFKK
How it was run: as §1

SMILES | IC50 [1] [nM] | Selected as bitterer: With antagonists [2] | Selected as bitterer: Without antagonists [2] | inhibition at 25 µM [3] [%] | inhibition at 25 µM [4] [%] | screening result against bitter receptor 55 [5] | inhibition at 25 µM [6] [%] | inhibition at 25 µM [12] [%] | screening result against bitter receptor 63 [14] | inhibition at 25 µM [15] [%] | screening result against bitter receptor 44 [16] | inhibition at 25 µM [17] [%] | inhibition at 25 µM [8] [%] | inhibition at 25 µM [11] [%] | screening result against bitter receptor 67 [18] | further results
COc1ccc(CN2C(=O)N(c3cnn(Cc4c(C)noc4C)c3)C(=O)C2(C)C)cc1O [Example 12-2, 3-(1-((3,5-dimethylisoxazol-4-yl)methyl)-1H-pyrazol-4-yl)-1-(3-hydroxy-4-methoxybenzyl)-5,5-dimethylimidazolidine-2,4-dione] | 60 | 2 | 14 | – | – | – | – | – | – | – | – | – | – | – | – | –
COc1cc(O)cc(CN2C(=O)N(c3cnn(Cc4c(C)noc4C)c3)C(=O)C2(C)C)c1 [Example 12-17, 3-(1-((3,5-dimethylisoxazol-4-yl)methyl)-1H-pyrazol-4-yl)-1-(3-hydroxy-5-methoxybenzyl)-5,5-dimethylimidazolidine-2,4-dione] | 20 | 3 | 17 | – | – | – | – | – | – | – | – | – | – | – | – | melting point: 72 to 74 °C
COc1ccc(CN(Cc2ccc(F)cc2)S(=O)(=O)c2ccc(C(=O)O)cc2)cc1 [Example 5-69, 4-(N-(4-fluorobenzyl)-N-(4-methoxybenzyl)sulfamoyl)benzoic acid] | – | – | – | 40 to 60 | > 80 | +++ (60% to 80% inhibition = +++) | 20 to 40 | 20 to 40 | ++++ (80% or greater inhibition = ++++) | 60 to 80 | + (20% to 40% inhibition = +) | – | – | – | – | screening result against bitter receptor 51 ([7]; compound at 25 μM): ++ (40% to 60% inhibition = ++); screening result against bitter receptor 71 ([8]; compound at 25 μM): + (20% to 40% inhibition = +); inhibition at 25 µM [9]: 20 to 40%; screening result against bitter receptor 10 ([10]; compound at 25 μM): + (20% to 40% inhibition = +); screening result against bitter receptor 3 ([11]; compound at 25 μM): + (20% to 40% inhibition = +); IC50 ([13]; Table C, read-out: hT2R14 IC50): 8280 nM
COc1ccc(CN(Cc2ccsc2)S(=O)(=O)c2ccc(C(=O)O)cc2)cc1 [Example 5-62, 4-(N-(4-methoxybenzyl)-N-(thiophen-3-ylmethyl)sulfamoyl)benzoic acid] | – | – | – | 40 to 60 | – | +++ (60% to 80% inhibition = +++) | 20 to 40 | 20 to 40 | ++++ (80% or greater inhibition = ++++) | 40 to 60 | – | 20 to 40 | 20 to 40 | 20 to 40 | + (20% to 40% inhibition = +) | –
O=C(O)c1ccc(S(=O)(=O)N(Cc2ccccc2)Cc2ccc(Cl)cc2)cc1 [Example 5-77, 4-(N-benzyl-N-(4-chlorobenzyl)sulfamoyl)benzoic acid] | – | – | – | 40 to 60 | > 80 | ++ (40% to 60% inhibition = ++) | 20 to 40 | 20 to 40 | +++ (60% to 80% inhibition = +++) | 60 to 80 | + (20% to 40% inhibition = +) | 20 to 40 | 40 to 60 | 40 to 60 | + (20% to 40% inhibition = +) | inhibition at 25 µM [19]: 20 to 40%; screening result against bitter receptor 54 [20]: ++ (40% to 60% inhibition = ++); inhibition at 25 µM [7]: 40 to 60%; inhibition at 25 µM [10]: 20 to 40%; screening result against bitter receptor 65 [21]: ++ (40% to 60% inhibition = ++)
COc1ccc(CN(Cc2ccco2)S(=O)(=O)c2ccc(C(=O)O)cc2)cc1 [Example 5-2, 4-(N-(furan-2-ylmethyl)-N-(4-methoxybenzyl)sulfamoyl)benzoic acid] | – | – | – | 60 to 80 | > 80 | ++++ (80% or greater inhibition = ++++) | – | 20 to 40 | ++++ (80% or greater inhibition = ++++) | > 80 | +++ (60% to 80% inhibition = +++) | 40 to 60 | 60 to 80 | 40 to 60 | + (20% to 40% inhibition = +) | inhibition at 25 µM [19]: 60 to 80%; melting point: 151 to 152 °C; screening result against bitter receptor 54 [20]: + (20% to 40% inhibition = +); inhibition at 25 µM [7]: 40 to 60%; inhibition at 25 µM [9]: 20 to 40%; inhibition at 25 µM [10]: 60 to 80%; inhibition at 25 µM [22]: 20 to 40%; IC50 ([13]; read-out: IC50 on hT2R14 bitter receptor): 590 nM; screening result against bitter receptor 65 [21]: + (20% to 40% inhibition = +)
Cc1noc(C)c1Cn1cc(N2C(=O)N(Cc3cccc(CO)c3)C(C)(C)C2=O)cn1 [Example 12-34, 3-(1-((3,5-dimethylisoxazol-4-yl)methyl)-1H-pyrazol-4-yl)-1-(3-(hydroxymethyl)benzyl)-5,5-dimethylimidazolidine-2,4-dione] | 110 | 3 | 13 | – | – | – | – | – | – | – | – | – | – | – | – | –
Cc1noc(C)c1Cn1cc(N2C(=O)N(Cc3cccc(O)c3)C(C)(C)C2=O)cn1 [Example 12-1, 3-(1-((3,5-dimethylisoxazol-4-yl)methyl)-1H-pyrazol-4-yl)-1-(3-hydroxybenzyl)-5,5-dimethylimidazolidine-2,4-dione] | 50 | 2 | 14 | – | – | – | – | – | – | – | – | – | – | – | – | –
